# Results published in patent US8716231B2, “Use of benzo-fused heterocycle sulfamide derivatives for the treatment of pain” (Janssen Pharmaceutica NV, priority 2005, dated 2014).
# Where “and” joins values, the source holds several entries; their conditions need not be identical. Equal entries are not always repeated.
# Columns and labels:
# [1] = system: acetic acid-induced abdominal stretching; experiment: Acetic Acid-induced Abdominal Constriction Model of Visceral Pain; assay type: in vivo, CD-1 mice; settings: 560 mg/kg oral; for number of abdominal stretches: not statistically significant (vehicle 13 to 16.2)
# Procedure: The purpose of this assay was to determine whether Compound #8 reverses hypersensitivity in visceral, inflammatory and neuropathic models of pain.
# Test compound and controls were dissolved in the appropriate volume of 0.5% HPMC or 10% solutol in 0.5% hydoxypropyl methylcellulose (HPMC). HPMC served as the vehicle for preparation of gabapentin solutions used as the positive control. Solutions were prepared to provide the final dose in a volume of 10 mL/kg orally (p.o.) for mice. Male CD-1 mice from Charles Rivers Laboratories (Portage, Me.), weighing between 25 and 30 grams at the time of study, were used for the acetic acid-induced abdominal stretching studies.
# Mice in the acetic acid-induced abdominal stretching study were allowed 1 hr to acclimate to the testing room before the start of the study. Animals were housed in micro-isolator cages in groups of four rats per cage or 5 mice per cage with corncob bedding and free access to food and water. The environment was maintained at a constant temperature of 21° C., with a 12-hour light/dark cycle.
# Animals used in the acetic acid-induced abdominal stretching test were maintained with original cage mates throughout the study period (four rats per cage, 5 mice per cage; cages were Nalgene® with corn cob bedding). Animals from several cages were randomly assigned across treatment groups; that is, mice in a given cage were pseudo-randomly assigned to different treatment groups. In all tests, the investigator performing the behavioral analysis was blinded to the treatment administered to any individual animal.
# Mice were then given an i.p injection of 0.5 mL (2×0.25 mL/abdominal quadrant) of 0.6% acetic acid following 1 hr, 2 hrs, 3 hrs or 4 hours treatment with vehicle, compound or positive control. Five minutes after i.p acetic acid injection, 5 animals were placed into separate bell jars containing a small amount of bedding chips, and the number of abdominal stretches per animal was recorded for 5 minutes. This was repeated for each group (N=10 mice/group). […]
# [2] = system: tactile allodynia in L5 SNL rats (von Frey withdrawal threshold); experiment: Lumbar 5 (L5) Spinal Nerve Ligation (Chung) Model of Neuropathic Pain, Studies A-D; assay type: in vivo, Sprague-Dawley rats; settings: for withdrawal thresholds: 2 hrs, 4 hrs and 6 hrs after oral administration
# Text: The rat Chung model is an assay used in determining whether a compound is useful for the treatment of neuropathic pain (Kim and Chung, 1994; Chaplan et al., 1994). In this assay, injury to the sciatic nerve by loose ligation with chromic gut suture, tight ligation of the L5 spinal nerve with silk suture or partial tight ligation with silk suture each produces hypersensitivity to many stimulus modalities (e.g., touch, pressure, temperature) that lasts for weeks or months. Hypersensitivity produced by such injuries is reminiscent of allodynia and hyperalgesia observed in clinical conditions of neuropathic pain caused by mechanical nerve injury, diabetes and chemotherapy. This assay is predictive of analgesic, antiallodynic and/or antihyperalgesic effect of test compounds.
# Test compound and controls were dissolved in the appropriate volume of 0.5% HPMC or 10% solutol in 0.5% hydoxypropyl methylcellulose (HPMC). HPMC served as the vehicle for preparation of gabapentin solutions used as the positive control. Solutions were prepared to provide the final dose in a volume of 2.5 mL/kg or 5 mL/kg p.o. for rats. Male, Sprague-Dawley rats from Harlan Industries (Indianapolis, Ind.), weighing 150 to 250 grams at the time of surgery, were used for L5 SNL studies.
# Rats in the SNL studies were housed and tested in the same room. Animals were housed in micro-isolator cages in groups of four rats per cage or 5 mice per cage with corncob bedding and free access to food and water. The environment was maintained at a constant temperature of 21° C., with a 12-hour light/dark cycle. Rats undergoing L5 SNL surgery were placed into individual housing cages with alpha dry bedding and had access to enrichment food, food pellets and water ad libitum. Animals were allowed four to six weeks recovery from surgery prior to testing and were not tested beyond eight weeks post-surgery. For L5 SNL testing, only those animals that responded to less than 4 gr force were included in further testing and analysis, being randomized into treatment groups on the day of study. In all tests, the investigator performing the behavioral analysis was blinded to the treatment administered to any individual animal.
# For L5 SNL surgery, rats were induced and maintained on isoflurane inhalation anesthesia. A 2-cm skin incision was made just left of midline over the dorsal aspect of the L4-S2 spinal segments, followed by separation of the paraspinal muscles from spinous processes. The transverse process of L6 was then carefully removed and the L5 spinal nerve was identified. The left L5 spinal nerve was then ligated tightly with 6-0 silk thread, the muscle was sutured with 4-0 vicryl, and the skin was closed with wound clips.
# Behavioral testing was performed on L5SNL rats at a time between 3-6 weeks post-ligation. […] Tactile allodynia was quantified at 30 min, 1 hr, 2 hrs, 4 hrs, 6 hrs, 8 hrs and/or 24 hr post-dosing by recording the force at which the paw ipsilateral to the nerve ligation was withdrawn from the application of a series of calibrated von Frey filaments (0.4, 0.7, 1.2, 2.0, 3.6, 5.5, 8.5 and 15.1 g; Stoelting; Wood Dale, Ill.). Beginning at an intermediate stiffness (2.0 g), filaments were applied to the mid-plantar hind paw for approximately 5 seconds. A brisk paw withdrawal led to the presentation of the next lighter stimulus and the lack of a withdrawal response led to the presentation of the next stronger stimulus to determine the response threshold. A total of four responses after the first threshold detection were collected. The 50% withdrawal thresholds were interpolated by the method of Dixon (as described in Meert T F and Vermeirsch, H A, Pharmacol. Biochem. Behav.; 2005, 80(2), pp 309-326) and when response thresholds fell above or below the range of detection, respective values of 15.0 or 0.25 g were assigned. […]
# [3] = system: mechanical (tactile) allodynia after L5 nerve ligation; experiment: Rat Chung Model of Neuropathic Pain (Example 14); assay type: in vivo, Sprague Dawley rats
# Text: The rat Chung model is an assay used in determining whether a compound is useful for the treatment of neuropathic pain (Kim and Chung, 1994; Chaplan et al., 1994).
# In this study, male Sprague Dawley rats (145-165 g; Harlan) were anesthetized and the L5 nerve was isolated and ligated with silk suture material resulting in mechanical allodynia. […] The results were normalized and results are presented as % MPE ([…]) of the drug.
compound,measurement,setting,value
"NS(=O)(=O)NC[C@H]1COc2cc(Cl)ccc2O1 [Compound #8, (2S)-(−)-N-(6-Chloro-2,3-dihydro-benzo[1,4]dioxin-2-ylmethyl)-sulfamide]",effect on acetic acid-induced stretching,[1]; compared with vehicle- or gabapentin-treated mice,did not significantly modify acetic acid-induced stretching
same,% reversal (withdrawal threshold),"[2]; Study A, 120 mg/kg oral, 1 hr",42.2±13.8%
same,% reversal (withdrawal threshold),"[2]; Study A, 120 mg/kg oral, 4 hrs",45.4±12.2%
same,% change (withdrawal threshold),"[2]; Study A, 240 mg/kg, 4 hr",65.6±21.1%
same,withdrawal thresholds,[2]; Study A,significantly increased withdrawal thresholds
same,"reversal in tactile hypersensitivity, peak effect","[2]; Study B, first administration (Day 1), 480 mg/kg, 4 hrs after dosing, three weeks after surgery",64.3±9.9%
same,reversal in tactile hypersensitivity,"[2]; Study B, first administration, other treatment groups (60, 120, 240 mg/kg)",No significant differences were observed
same,reversal of tactile hypersensitivity,"[2]; Study B, third and seventh day of daily dosing, 60-480 mg/kg",none of the treatment groups exhibited a significant reversal of tactile hypersensitivity
same,effect on mechanical allodynia,"[2]; Study C, 100 mg/kg, 300 mg/kg or 560 mg/kg, p.o., 4 weeks after surgery",did not show a statistically significant effect up to 6 hrs
same,decrease in mechanical allodynia,"[2]; Study D, 560 mg/kg p.o. in 10% solutol in HPMC, four weeks after surgery","showed a decrease in mechanical allodynia at 4 hrs and 6 hrs post dosing, but with a p=0.054"
same,time at which efficacy peaked,[3]; 120 mg/kg p.o.,1 h
same,time at which efficacy was observed,[3]; 120 mg/kg p.o.,30 min
same,time post-dosing at which efficacy was sustained,[3]; 120 mg/kg p.o.,4 h
same,time at which efficacy peaked,"[3]; 240 mg/kg, po",2 to 4 h
same,time at which efficacy was observed,"[3]; 240 mg/kg, po",30 min
same,time post-dosing at which efficacy was sustained,"[3]; 240 mg/kg, po",24 h
"NCC1(CC(=O)O)CCCCC1 [gabapentin, reference compound]",number of abdominal stretches,[1]; 2 hr after administration,11.00±1.5 stretches
same,number of abdominal stretches,[1]; 3 hr after administration,10.0±1.6 stretches
same,% reversal (withdrawal threshold),"[2]; Study A, 480 mg/kg, 2 hrs post-dosing, six weeks after surgery",73.2±14.7%
same,% reversal (withdrawal threshold),"[2]; Study A, 480 mg/kg, 4 hrs post-dosing, six weeks after surgery, 480 mg/kg",73.7±16.6% and 73.4±15.2%
same,withdrawal thresholds,[2]; Study A,significantly increased withdrawal thresholds
same,% reversal of mechanical allodynia relative to baseline,"[2]; Study C, 560 mg/kg, 2 hrs post dosing",58.7%
same,% reversal of mechanical allodynia relative to baseline,"[2]; Study C, 560 mg/kg, 4 hrs post dosing",86.4%
same,decrease in mechanical allodynia relative to baseline,"[2]; Study C, 560 mg/kg, 6 hrs post dosing",not at 6 hrs post dosing
same,effect of positive control on mechanical allodynia,[3]; 480 mg/kg p.o.,equivalent to the activity measured for Compound #8 at 240 mg/kg dosing
